{
  "source": "patent US6187906A",
  "about": "“Methods to improve neural outcome” (Aukland Uniservices Limited, priority 1998, dated 2001)",
  "key": {"[1]": {"assay": "[3H]-GPE quantitative receptor autoradiography in coronal brain sections", "assay_type": "binding, rat", "conditions": "1 hour room temperature, right side neurons absent due to injury, little reaction", "description": "A histological experiment to locate GPE binding sites within the rat brain employed quantitative receptor autoradiography to locate [3H]-GPE binding in coronal sections of the brain as previously described in Dragunow et al (1988, Brain Research 462, 252-257). Fresh frozen brain sections were cut on a cryostat and stored at -80 deg C. until use. Sections were then thawed and pre-incubated with 50 mM Tris HCl (pH 7.4) for 10 minutes at room temperature (250 μl per section). Sections were then dried and 250 μl per section of 5×10^5 counts/min^-1 of [3H]-GPE also made up in Tris HCl buffer (50 mM, pH 7.4) was added for 1 hour at room temperature. Sections were then washed two times for one minute each in ice-cold Tris-HCl followed by one rinse for 1 minute in ice-cold distilled water. Sections were then dried overnight at 4 deg C. and apposed to [3H] sensitive film for 2 weeks, and then developed to produce autoradiograms."}, "[2]": {"system": "TH positive neurons of the SNc", "assay": "6-OHDA lesion of medial forebrain bundle, TH neuron number and staining density in SNc (Experiment 6)", "assay_type": "in vivo", "description": "A paired experimental design was used and the experimenter was blinded to the treatment groups. Eighteen male Wistar rats (50-60 days old, 280-310 g) were used for this study. 6-hydroxy dopamine (6-OHDA) was prepared as 8 μg in a base of 2 μl 0.9% saline containing 1% ascorbic acid. It was administered into the right medial forebrain bundle (MFB) using coordinates of AP +4.7 mm, R 1.6 mm, V -8 mm under anaesthesia of 3% halothane, 6-OHDA was injected into the right MFB using a Hamilton syringe (100 μl with a 30G needle) controlled by a microdialysis infusion pump at an infusion rate of 0.2 μl/minute. The infusion needle was then slowly withdrawn 5 minutes after infusion. The surgery procedures for the intracerebroventricular administration have been described by Guan et al (1993), Journal of Cerebral Blood Flow and Metab, 13, 609-616. Briefly, a guide cannula (21G, 6 mm) was fixed on the top of the dura with coordinates of AP +7.5 mm, R 1.5 mm immediately after the injection of 6-OHDA. Either GPE (3 μg/15 μl) or its vehicle were infused into the right lateral ventricle 2 hours later at an infusion rate of 2 μl/minute (Guan et al (1993)). Rats were then housed in a holding room with food and water ad libitum for the next 2 weeks.\nThe rats were then deeply anaesthetized with an overdose of pentobarbital and transcardially perfused with normal saline followed by 10% buffered formalin. The brains were removed from the skull and kept in the same fixative for the next 48 hours. A standard paraffin tissue preparation was used to process the tissue so that it could be used for immunohistochemistry. […]\nThe number of TH positive neurons on both sides of the SNc were counted using light microscopic examination (20×magnification) at three representative levels (AP +4.2, +3.8 mm and […]) (Paxinos, et al (1982) New York: Academic Press).\nThe average density from the background was also measured. […] The difference in average density between the background and TH immunostaining was calculated and used for data analysis. […]"}, "[3]": {"system": "mesencephalic neurons (dopaminergic)", "assay": "Dopamine uptake in 6-OHDA treated embryonic mesencephalic cultures (Experiment 8)", "assay_type": "cell-based, Wistar rat", "conditions": "0.01-100 μM GPE, 4 μM 6-OHDA", "method": "Wistar rat ventral mesencephali from E15 (E1=plug) fetuses were dissected, pooled, and gently dissociate by repeated trituration in 3 ml of sterile modified Krebs-Ringer medium (Gibco, Life Technologies Ltd., NZ) supplemented per liter with 50,000 IU penicillin, 50 mg streptomycin, 1.26 g NaHCO3, and 2.2 g glucose. 2 ml of media was added and the suspension allowed to stand for 7 minutes, after which the supernatant was centrifuged for 7 minutes at 350 xg. The pellet was resuspended in serum-containing media: MEM media with 50,000 IU penicillin, 50 mg streptomycin, 1.26 g NaHCO3 and 5% fetal calf serum (Gibco). Cells were seeded at 2.5-4.0×10^5 trypan-excluding viable cells/cm^2 in sterile 24 well plates precoated for two hours with 5 μg/ml poly-L lysine in H2 O. Cultures were allowed to recover for 24 h at 37° C. in a humidified 95% air: 5% CO2 incubator. […]\nCultures were assayed for dopamine uptake using a modified procedure of Prochiantz et al., 1981 (Nature, Vol. 293, No., 5833). […] The wells were then rinsed with 250 μl 1% Triton X-100 and the contents added to the appropriate scintillation vial containing 4 ml of Ready safe scintillation fluid (Beckman, Palo Alto, Calif.). […]"}, "[4]": {"system": "neurons in the CA1-2 region of the hippocampus", "assay_type": "in vivo, Wistar rats", "description": "The objective of this study was to compare the effects of treatment with GPE to that of a vehicle given 2 hours after an hypoxic-ischemic injury. The dose range of 2 to 200 μg was chosen to span a range of systemic doses that are greater than that required centrally (see experiment 3).\nUnilateral hypoxic-ischemic injury was induced in 21 day old, 45±5 g Wistar rats. The rats underwent unilateral carotid ligation under light halothane anaesthesia.\nFollowing one hour recovery they were placed in an incubator at 34 deg C. 85±5% humidity for one hour before the injury. They were subjected to […] inhalation hypoxia (Fi02.8.0%) and then returned to room temperature (22 deg C.) and normoxia. […]\nSurviving and dead neurons were discriminated using the thionin/acid fuchsin staining technique (Guan et al J Cereb Blood Flow Metab. 13:609-616 (1993). The results, in which the height of a point is given by the ratio as a percentage of live neurones in the CA1-2 region on the right side to the number on the left side are shown in FIG. 5. Column A is vehicle, column B is 2 μg of GPE, column C is 20 μg of GPE, and column D is 200 μg of GPE. In this figure, the P value (0.031) was calculated by a method using one way ANOVA comparing many groups after Arcsin transformation."}},
  "data": [
    {"smiles": "NCC(=O)N1CCC[C@H]1C(=O)N[C@@H](CCC(=O)O)C(=O)O", "note": "[GPE, gly-pro-glu]", "values": [
      {"measurement": "[3H]-GPE binding in hippocampus", "setting": "[1]", "value": "left hippocampus has bound the radioactive material"},
      {"measurement": "TH immunoreactivity (density of TH immunostaining, R/L)", "setting": "[2]; caudal levels, 3 μg GPE, vehicle 16±11.2, mean ±SEM", "value": "99.6±27", "unit": "%"},
      {"measurement": "neurons remaining in the ipsilateral SNc", "setting": "[2]; caudal levels, GPE 3 μg, vehicle 16.3±11.5", "value": "over 60.9±13.0%"},
      {"measurement": "TH immunoreactivity (density of TH immunostaining)", "setting": "[2]; lesioned (right) side, 3 μg GPE icv 2 hours after 6-OHDA, 2 weeks", "value": "restored"},
      {"measurement": "protection from 6-OHDA toxicity (dopamine uptake)", "setting": "[3]", "value": "protects mesencephalic neurons"},
      {"measurement": "loss of neurons in the CA1-2 region of the hippocampus", "setting": "[4]; 20 μg GPE single intraperitoneal injection 2 hours after injury, 120 hrs, p<0.05", "value": "reduced the loss of neurons"},
      {"measurement": "crossing of the blood-brain barrier", "setting": "[4]; rat, in vivo", "value": "can cross the blood-brain barrier"}
    ]}
  ]
}
